The results in this text go back to patent US12133857B2, “Method for prolonging half-life of theanine in vivo” (Anhui Agricultural University, priority 2023, dated 2024).

Structures are written as SMILES.

Data set [1] in a line: in vivo. Particulars: rat, po, 500 mg/kg. On the procedure: 1-deoxy-1-L-theanine-D-fructopyranose was recorded as a theanine glycoside 1, 1-deoxy-1-L-theanine-D-galactopyranose was recorded as a theanine glycoside 2, and 1-deoxy-1-L-theanine-D-ribopyranose was recorded as a theanine glycoside 3. • 1. Experimental animals: Male SD rats with the body weight of (180±20) g were used. • 2. Administration and sample collection: The rats were intragastrically administered (n=6), which were randomly divided into two groups, including a theanine group and a theanine glycoside group. The rats were subjected to fasting without limitation of water for 12 h before administration and then allowed to drink water after intragastric administration. The intragastric administration dose was 500 mg/kg. 1 h, 2 h, 4 h, 8 h and 12 h before and after the administration, 0.5 mL of blood was collected from eye sockets of 6 rats in each group, respectively. Blood samples were centrifuged at 3,000 g for 15 min, supernatants were separated to obtain plasma samples, and the plasma samples were stored at −80° C. • 3. Instrument conditions and determination of plasma samples:
(§1) Instrument: SCIEX Triple Quad™ 5500 LC-MS/MS was used.
Drawing of a standard curve: 100 μL of blank plasma of the rats was taken, added into 1.5 mL of a 70% methanol aqueous solution and mixed in vortex for 30 s, and a resulting mixture was subjected to ultrasonic treatment in an ice water bath for 10 min, followed by standing at −20° C. for 20 min to precipitate a protein. The protein was centrifuged briefly for 15 s for 2 times, and a supernatant was taken out, dried by a vacuum concentrator at 4° C. and redissolved with 200 μl of methanol. 200 μL of a series of standard solutions of a tested compound and 10 μL of an internal standard (DL-4-chlorophenylmethylamino) were sequentially added to prepare plasma samples of the tested compound with a plasma concentration of 0.1 μM, 1 μM, 10 μM, 100 μM, 1,000 μM and 10,000 μM respectively, followed by LC-MS/MS analysis. With the concentration of the tested compound (x) as the abscissa and the ratio of peak areas of the tested compound and the internal standard (y) as the ordinate, regression calculation was performed by a weighted least square method to obtain a linear regression equation, namely a standard curve. According to the standard curve, the linear range of the tested compound in the plasma of the rats was 0.1 μM-10,000 μM as determined by an LC-MS/MS method. […]
The half-life T1/2 was calculated according to formulas below: […]

Data set [2] is described as follows: in vivo. The settings on record: mouse, po, 500 mg/kg. On the procedure:
1-deoxy-1-L-theanine-D-fructopyranose was recorded as a theanine glycoside 1, 1-deoxy-1-L-theanine-D-galactopyranose was recorded as a theanine glycoside 2, and 1-deoxy-1-L-theanine-D-ribopyranose was recorded as a theanine glycoside 3. • 1. Experimental animals: Male C57BL/6J mice with the body weight of (20±2) g were used. • 2. Administration and sample collection: The mice were intragastrically administered (n=6), which were randomly divided into two groups, including a theanine group and a theanine glycoside group. The mice were subjected to fasting without limitation of water for 12 h before administration and then allowed to drink water after intragastric administration. The intragastric administration dose was 500 mg/kg. 1 h, 2 h, 4 h, 8 h and 12 h before and after the administration, 6 mice in each group were killed by cervical dislocation and then dissected to obtain brain tissues respectively, and the brain tissues were stored at −80° C. for subsequent detection. • 3. Instrument conditions and determination of brain tissue samples:
as §1
Drawing of a standard curve: 20 mg of blank brain tissues of the mice were taken, added into 1.5 mL of a 70% methanol aqueous solution and mixed in vortex for 30 s, and a resulting mixture was subjected to ultrasonic treatment in an ice water bath for 10 min, followed by standing at −20° C. for 20 min to precipitate a protein. The protein was centrifuged briefly for 15 s for 2 times, and a supernatant was taken out, dried by a vacuum concentrator at 4° C. and redissolved with 200 μL of methanol. 200 μl of a series of standard solutions of a tested compound and 10 μl of an internal standard (DL-4-chlorophenylmethylamino) were sequentially added to prepare brain tissue samples of the tested compound with a brain tissue concentration of 0.1 μM, 1 μM, 10 μM, 100 μM, 1,000 μM and 10,000 μM respectively, followed by LC-MS/MS analysis. With the concentration of the tested compound (x) as the abscissa and the ratio of peak areas of the tested compound and the internal standard (y) as the ordinate, regression calculation was performed by a weighted least square method to obtain a linear regression equation, namely a standard curve. According to the standard curve, the linear range of the tested compound in the plasma of the mice was 0.1 μM-10,000 μM as determined by an LC/MS/MS method. […]

Turning to `CCNC(=O)CC[C@H](NCC1(O)OC[C@@H](O)[C@@H](O)[C@@H]1O)C(=O)O` (stereo partly drawn) [Theanine glycoside 1, 1-deoxy-1-L-theanine-D-fructopyranose], the “T1/2 in the blood” value in the data set “in vivo [1]” worked out at 25.70 ± 1.31 h. Also, the “T1/2 in the brain” value in the data set “in vivo [2]” was determined as 19.56 ± 1.54 h.
On to `CCNC(=O)CC[C@H](NC1O[C@H](CO)[C@H](O)[C@H](O)[C@H]1O)C(=O)O` (stereo partly drawn) [Theanine glycoside 2, 1-deoxy-1-L-theanine-D-galactopyranose], for which the “T1/2 in the blood” value in the data set “in vivo [1]” was 19.94 ± 1.06 h. Besides, the “T1/2 in the brain” value in “in vivo [2]” worked out at 13.55 ± 1.55 h.
The term half-life denotes the time in which the quantity being followed falls by half. Consider `CCNC(=O)CC[C@H](N)C(=O)O` [Theanine, L-theanine], for which the half-life is 2.05 ± 0.12 h in “in vivo [1]” (male, SD) and 2.07 ± 0.19 h in the data set “in vivo [2]” (male, C57BL/6J).
Regarding `CCNC(=O)CC[C@H](NC1OC[C@@H](O)[C@@H](O)[C@H]1O)C(=O)O` (stereo partly drawn) [Theanine glycoside 3, 1-deoxy-1-L-theanine-D-ribopyranose], the “T1/2 in the blood” value in “in vivo [1]” was 16.80 ± 1.93 h. Further, the “T1/2 in the brain” value in “in vivo [2]” was determined as 10.85 ± 0.54 h.
